What was measured:
Conditions in all cases: 48 h
NOMO1 [1] = experiment: cell viability relative to DMSO control; higher = less cytotoxic
How it was run: (§1)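 Viability, reported as a per-plate percentage of DMSO wells with cell-free wells as background, came from CellTiter-Glo One luminescence. Reading took place after 48 h at 37°C. Before that, NOMO1 or SEM (500 cells/well) or P12-Ichikawa (1000 cells/well) leukemia cells, adapted for at least four passages in each medium, were seeded in 1536-well plates (5 μl) and pin-dosed with library compounds in DMSO, 47 μM to 0.79 nM over 11 threefold points.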

P12-Ichikawa [2] = experiment: as above
How it was run: as §1

SEM cells [3] = experiment: as above
How it was run: as §1

NOMO1 [4] = experiment: AUC of viability dose-response curve (% viability x log10 dose units); higher = less sensitive
How it was run: (§2)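 Leukemia cells adapted to each medium were seeded in 1536-well plates (500 or 1000 cells/well) and given library compounds in DMSO for 48 h at 37°C. The 11 threefold doses spanned 47 μM to 0.79 nM, and CellTiter-Glo One luminescence was normalised per plate to DMSO and cell-free wells before four-parameter log-logistic fitting on log10 dose. Area under the curve was integrated with the trapezoidal rule, scaling curves above full viability and removing curves that failed quality control.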

P12-Ichikawa [5] = experiment: as above
How it was run: as §2

SEM cells [6] = experiment: as above
How it was run: as §2

OC[C@H]1O[C@H]([C@@H](F)[C@@H]1O)N2\C=C/C(=O)NC2=O
cell viability [%]
Conditions	NOMO1 [1]	P12-Ichikawa [2]	SEM cells [3]
HPLM + 10% dialyzed FBS, 0.000781 µM	99.1	110	106
HPLM + 10% dialyzed FBS, 0.00234 µM	106	108	42.5
HPLM + 10% dialyzed FBS, 0.00702 µM	106	108	111
HPLM + 10% dialyzed FBS, 0.0211 µM	97.2	110	109
HPLM + 10% dialyzed FBS, 0.0632 µM	116	108	108
HPLM + 10% dialyzed FBS, 0.19 µM	108	112	117
HPLM + 10% dialyzed FBS, 0.569 µM	108	114	122
HPLM + 10% dialyzed FBS, 1.71 µM	107	102	112
HPLM + 10% dialyzed FBS, 5.12 µM	109	99.6	90.8
HPLM + 10% dialyzed FBS, 15.4 µM	97.9	98	109
HPLM + 10% dialyzed FBS, 46.1 µM	90.2	94.1	106
RPMI 5 mM glucose + 10% FBS, 0.000781 µM	85.9	99	93.2
RPMI 5 mM glucose + 10% FBS, 0.00234 µM	40.6	108	113
RPMI 5 mM glucose + 10% FBS, 0.00702 µM	97	108	110
RPMI 5 mM glucose + 10% FBS, 0.0211 µM	92.9	91.6	101
RPMI 5 mM glucose + 10% FBS, 0.0632 µM	99.7	97.9	90.1
RPMI 5 mM glucose + 10% FBS, 0.19 µM	104	114	105
RPMI 5 mM glucose + 10% FBS, 0.569 µM	98.2	106	112
RPMI 5 mM glucose + 10% FBS, 1.71 µM	100	102	97
RPMI 5 mM glucose + 10% FBS, 5.12 µM	84.8	92.1	93.5
RPMI 5 mM glucose + 10% FBS, 15.4 µM	94.3	102	91.2
RPMI 5 mM glucose + 10% FBS, 46.1 µM	82.8	106	95.9
RPMI 5 mM glucose + 10% dialyzed FBS, 0.000781 µM	105	109	105
RPMI 5 mM glucose + 10% dialyzed FBS, 0.00234 µM	74.5	93.5	48.6
RPMI 5 mM glucose + 10% dialyzed FBS, 0.00702 µM	97	104	99.8
RPMI 5 mM glucose + 10% dialyzed FBS, 0.0211 µM	102	100	91.6
RPMI 5 mM glucose + 10% dialyzed FBS, 0.0632 µM	102	99.4	96.4
RPMI 5 mM glucose + 10% dialyzed FBS, 0.19 µM	99.4	97	102
RPMI 5 mM glucose + 10% dialyzed FBS, 0.569 µM	105	105	99.1
RPMI 5 mM glucose + 10% dialyzed FBS, 1.71 µM	99.5	96	90.7
RPMI 5 mM glucose + 10% dialyzed FBS, 5.12 µM	84	93.6	74
RPMI 5 mM glucose + 10% dialyzed FBS, 15.4 µM	104	93.5	100
RPMI 5 mM glucose + 10% dialyzed FBS, 46.1 µM	95.2	88.6	87.5

AUC of viability dose-response curve
Conditions	NOMO1 [4]	P12-Ichikawa [5]	SEM cells [6]
HPLM + 10% dialyzed FBS	470	460	454
RPMI 5 mM glucose + 10% FBS	430	475	463
RPMI 5 mM glucose + 10% dialyzed FBS	464	449	432

C=CCNC1=C2C[C@@H](C)C[C@H](OC)[C@H](O)[C@@H](C)/C=C(\C)[C@H](OC(N)=O)[C@@H](OC)/C=C\C=C(/C)C(=O)NC(=CC1=O)C2=O
AUC of viability dose-response curve
Conditions	NOMO1 [4]	P12-Ichikawa [5]	SEM cells [6]
HPLM + 10% dialyzed FBS	390	403	310
RPMI 5 mM glucose + 10% FBS	389	380	285
RPMI 5 mM glucose + 10% dialyzed FBS	385	384	291

Reference: the supplement of paper PMC11451515
